Data on three compounds can be found in PubChem BioAssay (NCI).

SMILES strings stand for the structures.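 Tested at 5 concentrations; 48 h exposure; 96-well plates; endpoints linearly interpolated, else capped at highest concentration. At the TGI there is no net growth.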 A value given as a limit tells only on which side of the number the result lay.

The test system of one assay is OVCAR-8 ovarian. The experiment in a line: inhibition of tumour cell growth, NCI panel, 48 h.
The compound `Cc1ccc(Nc2nc3ccccc3c(=O)n2N)cc1` displayed a TGI above 100 µM.

The compound `Nc1nc2ccc(NCc3ccc(C(=O)NC(CCC(=O)O)C(=O)O)cc3)cc2c(=O)[nH]1` (stereo not drawn) yielded a TGI above 100 µM.

`COc1ccc([C@H]2CC(=O)C[C@H](c3ccc(OC)cc3OC)C23C(=O)c2ccccc2C3=O)c(OC)c1`: the TGI was above 100 µM.

Another assay relates to COLO 205 colon. Description: inhibition of tumour cell growth, NCI panel, 48 h.
With `Cc1ccc(Nc2nc3ccccc3c(=O)n2N)cc1`, the TGI is above 100 µM.

The compound `Nc1nc2ccc(NCc3ccc(C(=O)NC(CCC(=O)O)C(=O)O)cc3)cc2c(=O)[nH]1` (stereo not drawn) gave a TGI above 100 µM.

`COc1ccc([C@H]2CC(=O)C[C@H](c3ccc(OC)cc3OC)C23C(=O)c2ccccc2C3=O)c(OC)c1` showed a TGI above 100 µM.

The subject of a further assay is HS 578T breast. Description: inhibition of tumour cell growth, NCI panel, 48 h.
In the case of `Cc1ccc(Nc2nc3ccccc3c(=O)n2N)cc1`, the TGI is above 100 µM.

In the case of `Nc1nc2ccc(NCc3ccc(C(=O)NC(CCC(=O)O)C(=O)O)cc3)cc2c(=O)[nH]1` (stereo not drawn), the TGI was above 100 µM.

Turning to `COc1ccc([C@H]2CC(=O)C[C@H](c3ccc(OC)cc3OC)C23C(=O)c2ccccc2C3=O)c(OC)c1`, the TGI is above 100 µM.

For the next assay, the system named is MALME-3M melanoma. The experiment in a line: inhibition of tumour cell growth, NCI panel, 48 h.
With `Cc1ccc(Nc2nc3ccccc3c(=O)n2N)cc1`, the TGI was above 100 µM.

The compound `Nc1nc2ccc(NCc3ccc(C(=O)NC(CCC(=O)O)C(=O)O)cc3)cc2c(=O)[nH]1` (stereo not drawn) yielded a TGI above 100 µM.

`COc1ccc([C@H]2CC(=O)C[C@H](c3ccc(OC)cc3OC)C23C(=O)c2ccccc2C3=O)c(OC)c1` yielded a TGI above 100 µM.

Another assay deals with CAKI-1 renal. The experiment in a line: inhibition of tumour cell growth, NCI panel, 48 h.
Compound `Cc1ccc(Nc2nc3ccccc3c(=O)n2N)cc1` returned a TGI above 100 µM.

The compound `Nc1nc2ccc(NCc3ccc(C(=O)NC(CCC(=O)O)C(=O)O)cc3)cc2c(=O)[nH]1` (stereo not drawn) gave a TGI above 100 µM.

`COc1ccc([C@H]2CC(=O)C[C@H](c3ccc(OC)cc3OC)C23C(=O)c2ccccc2C3=O)c(OC)c1` registered a TGI above 100 µM.

Another assay concerns ACHN renal. Description: inhibition of tumour cell growth, NCI panel, 48 h.
In turn, `Cc1ccc(Nc2nc3ccccc3c(=O)n2N)cc1` came in with a TGI above 100 µM.

Consider `Nc1nc2ccc(NCc3ccc(C(=O)NC(CCC(=O)O)C(=O)O)cc3)cc2c(=O)[nH]1` (stereo not drawn), for which the TGI was 39.9 µM.

Consider `COc1ccc([C@H]2CC(=O)C[C@H](c3ccc(OC)cc3OC)C23C(=O)c2ccccc2C3=O)c(OC)c1`, for which the TGI is above 100 µM.

A further assay concerns BT-549 breast. The experiment in a line: inhibition of tumour cell growth, NCI panel, 48 h.
As to `Cc1ccc(Nc2nc3ccccc3c(=O)n2N)cc1`, the TGI was above 100 µM.

Regarding `Nc1nc2ccc(NCc3ccc(C(=O)NC(CCC(=O)O)C(=O)O)cc3)cc2c(=O)[nH]1` (stereo not drawn), the TGI is above 100 µM.

Consider `COc1ccc([C@H]2CC(=O)C[C@H](c3ccc(OC)cc3OC)C23C(=O)c2ccccc2C3=O)c(OC)c1`, for which the TGI was above 100 µM.

In a further assay the test system is LOX IMVI melanoma. The experiment in a line: inhibition of tumour cell growth, NCI panel, 48 h.
`Cc1ccc(Nc2nc3ccccc3c(=O)n2N)cc1` came in with a TGI above 100 µM.

`Nc1nc2ccc(NCc3ccc(C(=O)NC(CCC(=O)O)C(=O)O)cc3)cc2c(=O)[nH]1` (stereo not drawn) showed a TGI above 100 µM.

In turn, `COc1ccc([C@H]2CC(=O)C[C@H](c3ccc(OC)cc3OC)C23C(=O)c2ccccc2C3=O)c(OC)c1` yielded a TGI above 100 µM.

In another assay the test system is NCI-H23 lung. Description: inhibition of tumour cell growth, NCI panel, 48 h.
On to `Cc1ccc(Nc2nc3ccccc3c(=O)n2N)cc1`, for which the TGI was above 100 µM.

In the case of `Nc1nc2ccc(NCc3ccc(C(=O)NC(CCC(=O)O)C(=O)O)cc3)cc2c(=O)[nH]1` (stereo not drawn), the TGI is above 100 µM.

`COc1ccc([C@H]2CC(=O)C[C@H](c3ccc(OC)cc3OC)C23C(=O)c2ccccc2C3=O)c(OC)c1` had a TGI above 100 µM.

A further assay deals with PC-3 prostate. The experiment in a line: inhibition of tumour cell growth, NCI panel, 48 h.
As to `Cc1ccc(Nc2nc3ccccc3c(=O)n2N)cc1`, the TGI is above 100 µM.

On to `Nc1nc2ccc(NCc3ccc(C(=O)NC(CCC(=O)O)C(=O)O)cc3)cc2c(=O)[nH]1` (stereo not drawn), for which the TGI was above 100 µM.

Compound `COc1ccc([C@H]2CC(=O)C[C@H](c3ccc(OC)cc3OC)C23C(=O)c2ccccc2C3=O)c(OC)c1` displayed a TGI above 100 µM.

A further assay deals with IGROV1 ovarian. The experiment in a line: inhibition of tumour cell growth, NCI panel, 48 h.
Take `Cc1ccc(Nc2nc3ccccc3c(=O)n2N)cc1`: the TGI is above 100 µM.

For the compound `Nc1nc2ccc(NCc3ccc(C(=O)NC(CCC(=O)O)C(=O)O)cc3)cc2c(=O)[nH]1` (stereo not drawn), the TGI was above 100 µM.

The compound `COc1ccc([C@H]2CC(=O)C[C@H](c3ccc(OC)cc3OC)C23C(=O)c2ccccc2C3=O)c(OC)c1` returned a TGI above 100 µM.

A further assay relates to U251 CNS. Description: inhibition of tumour cell growth, NCI panel, 48 h.
In turn, `Cc1ccc(Nc2nc3ccccc3c(=O)n2N)cc1` came in with a TGI above 100 µM.

Compound `Nc1nc2ccc(NCc3ccc(C(=O)NC(CCC(=O)O)C(=O)O)cc3)cc2c(=O)[nH]1` (stereo not drawn) had a TGI above 100 µM.

The compound `COc1ccc([C@H]2CC(=O)C[C@H](c3ccc(OC)cc3OC)C23C(=O)c2ccccc2C3=O)c(OC)c1` yielded a TGI above 100 µM.

The next assay has as its system 786-0 renal. Description: inhibition of tumour cell growth, NCI panel, 48 h.
The compound `Cc1ccc(Nc2nc3ccccc3c(=O)n2N)cc1` showed a TGI above 100 µM.

With `Nc1nc2ccc(NCc3ccc(C(=O)NC(CCC(=O)O)C(=O)O)cc3)cc2c(=O)[nH]1` (stereo not drawn), the TGI was above 100 µM.

With `COc1ccc([C@H]2CC(=O)C[C@H](c3ccc(OC)cc3OC)C23C(=O)c2ccccc2C3=O)c(OC)c1`, the TGI is above 100 µM.

The subject of a further assay is A549 NSCLC. Description: inhibition of tumour cell growth, NCI panel, 48 h.
Compound `Cc1ccc(Nc2nc3ccccc3c(=O)n2N)cc1` displayed a TGI above 100 µM.

On to `Nc1nc2ccc(NCc3ccc(C(=O)NC(CCC(=O)O)C(=O)O)cc3)cc2c(=O)[nH]1` (stereo not drawn), for which the TGI was above 100 µM.

The compound `COc1ccc([C@H]2CC(=O)C[C@H](c3ccc(OC)cc3OC)C23C(=O)c2ccccc2C3=O)c(OC)c1` displayed a TGI above 100 µM.

In a further assay the test system is SF-268 CNS. The experiment in a line: inhibition of tumour cell growth, NCI panel, 48 h.
`Cc1ccc(Nc2nc3ccccc3c(=O)n2N)cc1` came in with a TGI above 100 µM.
